US9765063B2, “Amido compounds as RORγt modulators and uses thereof” (New York University, priority 2011, dated 2017)
“Also recorded” adds a separate entry of the source. Where two headings read alike, the source gives them in different places.

Tests used:
[1] = target: T1, RORγt (Mus musculus, UniProt P51450); test: RORγt S2 cell reporter assay (Gal4-RORγt fusion, UAS-luciferase); format: cell-based
T1 construct: expressed in transfected cells; the other entry of the earlier key: GAL4 (P04386, Regulatory protein GAL4)
Description: Methods: The Drosophila S2 cell line was originally purchased from Invitrogen and was maintained in Schneider's medium supplemented with 10% heat-inactivated bovine fetal calf serum and antibiotics (Invitrogen). […] The resulting chimeric gene was subcloned into the copper inducible pMT/V5-His A vector (available from Invitrogen).
Renilla luciferase construct under the polIII promoter was obtained from Dr. Dasgupta's laboratory (NYU medical center). In order to generate stable cell lines, cells were co-transfected with pMT-G4DBD-RORγt, pMT-G4DBD-RORα, pMT-G4DBD-DHR3, or pMT-G4DBDVP16 and pHygro plasmids (Invitrogen) and screened for resistant colonies in the presence of hygromycin (0.3 mg/mL). […] Using similar methods, stable clones with genomic integration of the luciferase reporters and other reporters were generated such as pMT-RORα_luc, pMT-DHR3_luc, or pMT-VP16_luc.
Methods: 600 G4DBD-RORγ/γt-luc reporter (#25) or G4DBD-VP16-luc reporter cells were distributed into each well of 1,536-well white bottom plates in 4 μl S2 cell culture volume containing hygromicin (300 μg/ml) and puromycin (2 μg/ml). […] After one-hour incubation, 1 of culture medium solution containing copper sulfate (to final 0.7 mM) and 10 μM RORγ/γt antagonists were added to each well. After 20-hour incubation at ambient temperature, 1.5 μl firefly luciferase detection mix was added and the luciferase activities were measured in 10 min. ViewLux luminometers were used for measuring luciferase signal.
A cell-based reporter assay was used to detect RORγt-mediated activity. This assay, called RORγt employed Drosophila Schneider cells that were stably transfected with two vectors: a gene expressing a fusion of the Gal4 DNA binding domain and RORγt transactivation domain under the control of the metallothionine promoter and a Photinus luciferase reporter regulated by the Gal4 binding site enhancer, UAS. […] Cells (600/well) were dispensed into white solid 1536-well plates (Greiner) using a solenoid-based dispenser. Following transfer of […] compound or DMSO vehicle by a pin tool, the plates were incubated 1 hr at ambient temperature, and 1 uL/well copper sulfate (700 uM final concentration) was added. The plates were centrifuged 15 s at 1000 RPM and incubated 20 hr at ambient temperature. After addition of 1.5 uL Photinus luciferase detection reagent, the plates were incubated 10 min at ambient temperature and then read by a ViewLux (Perkin Elmer) to detect luminescence. […] Efficacy is expressed as % of the maximal response of control inhibitor (Digoxin), set at 100%.

[2] = system: RORα; test: RORα overexpression dependent IL17a production in human CD4 T cells (FIG. 3); format: cell-based; conditions: FIG. 3, FACS, 0.5 μM; listed as NCGC00242624
Procedure: Briefly, CD3+ CD4+ CD45RA+ naive human T cells were isolated from peripheral blood derived from healthy donors. The naive T cells were cultured in XVIVO-20 (Lonza) medium for 7 days in the presence of IL2 and stimulatory CD3 and CD28 antibodies. Cells were infected with lentivirus encoding human RORα or RORγ and compound or DMSO was added on day 2. FACS plot analysis is shown after gating on GFP expressing (virus infected) cells.

[3] = system: human Th17 cell differentiation; test: Human Th17 cell differentiation (FACS, FIG. 2); format: cell-based; conditions: FIG. 2, FACS, 0.5 μM; listed as NCGC00242624
Procedure: • 1) S2 cell reporter system: Identified hits from HTS are further screened and their specificity confirmed by testing against RORγ-luc, VP16-luc, RORα-luc, and DHR3-luc reporter S2 cell lines. Compounds either having no activity on VP16, RORα, and DHR3 or having ten times higher IC50 values on such reporters are selected for further tests. • 2) Cytokine induced mouse Th17 cells differentiation. Effects on mouse endogenous RORγt in a relevant physiological setting were determined by testing compounds in the Th17 cell differentiation assay. Compounds having RORγt inhibitory activity are predicted to suppress Th17 cell differentiation. Th1 or regulatory T cell differentiation was used as a counter-screen method to select specific compounds that only affect Th17 cell differentiation without having pleiotrophic effects on general T cell proliferation or cytokine production. • 3) ROR dependent Th17 cell differentiation. Compounds were further tested, by examining their effects on T cells expressing RORα or RORγ. […] Compounds affecting IL17a production or ROR regulatory pathways, however, are expected to inhibit both. • 4) Human Th17 cell differentiation. Compound effects on human RORγt will be tested by treating human cord blood CD4 T cells with select compounds to determine if such compounds alter differentiation into Th17 lineages.
(§1) For Th1 differentiation, IL12 (10 ng/ml) and IL2 (100 U/ml) were added to naive CD4 T cell cultures instead of TGFβ and IL6.

[4] = system: human Th1 cell differentiation; test: Human Th1 cell differentiation, IFNγ production (counter-screen, FIG. 2); format: cell-based; conditions: FIG. 2, FACS, 0.5 μM, naive CD4 T cells, IL12 and IL2; listed as NCGC00242624
Procedure: as §1

[5] = Half-life in Human Liver Microsomes (HLM); format: in vitro ADME
Procedure: Test compounds (1 μM) are incubated with 3.3 mM MgCl2 and 0.78 mg/mL HLM (HL101) in 100 mM potassium phosphate buffer (pH 7.4) at 37° C. on the 96-deep well plate. The reaction mixture is split into two groups, a non-P450 and a P450 group. NADPH is only added to the reaction mixture of the P450 group. An aliquot of samples of the P450 group is collected at 0, 10, 30, and 60 min time points, where the 0 min time point indicated the lime at which NADPH is added into the reaction mixture of the P450 group. […] Collected aliquots are extracted with acetonitrile solution containing an internal standard. […] The compound concentration in supernatant is measured by LC/MS/MS system.
The half-life value is obtained by plotting the natural logarithm of the peak area ratio of compounds/internal standard versus time. The slope of the line of best fit through the points yields the rate of metabolism (k). This is converted to a half-life value using following equations: Half-life=ln 2/k

T1 sequence (P51450 with tags, fused parts or gaps): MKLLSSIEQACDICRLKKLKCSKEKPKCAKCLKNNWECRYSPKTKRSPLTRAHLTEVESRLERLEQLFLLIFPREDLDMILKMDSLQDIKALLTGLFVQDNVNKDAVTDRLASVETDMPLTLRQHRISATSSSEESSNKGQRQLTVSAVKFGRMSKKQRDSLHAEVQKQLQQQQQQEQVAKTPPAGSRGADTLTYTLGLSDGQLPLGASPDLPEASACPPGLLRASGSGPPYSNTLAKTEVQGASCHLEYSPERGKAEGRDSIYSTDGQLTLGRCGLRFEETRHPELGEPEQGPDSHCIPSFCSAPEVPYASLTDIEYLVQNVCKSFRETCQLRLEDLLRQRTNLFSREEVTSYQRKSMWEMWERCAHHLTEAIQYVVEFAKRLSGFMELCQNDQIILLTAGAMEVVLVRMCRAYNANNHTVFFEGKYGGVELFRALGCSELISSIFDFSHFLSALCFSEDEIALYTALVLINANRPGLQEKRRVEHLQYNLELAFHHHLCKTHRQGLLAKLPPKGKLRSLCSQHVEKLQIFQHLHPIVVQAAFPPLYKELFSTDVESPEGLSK

IC50 ([1]; Table 1, Drosophila S2 cells, luciferase reporter, read-out: IC50): 1000 to 10000 nM | IC50 ([1]; Table 2, from the S2 cell reporter assay, listed for comparison, read-out: S2 cell RORg IC50): < 1000 nM | % Remaining @ 60 min ([5]; 1 μM compound, 0.78 mg/mL HLM, 37° C., 60 min): 51.36% | half-life at 1 μM ([5]; human, human liver microsomes, pH 7.4, 1 μM compound, 0.78 mg/mL HLM, 37° C., Half-life=ln 2/k): 1.07 h | microsomal CLint at 1 μM ([5]; human, human liver microsomes, pH 7.4, 1 μM compound, 0.78 mg/mL HLM, 37° C., read-out: CLint (uM/Min/mg proteins)): 21.6 µL/min/mg
Compound: COc1cc(O)c(C(CC(=O)N2CC(C)CC(C)C2)c2ccc(C(=O)O)cc2)c(OC)c1 (stereo not shown) [Compound 99, 4-(3-(3,5-Dimethylpiperidin-1-yl)-1-(2-hydroxy-4,6-dimethoxyphenyl)-3-oxopropyl)benzoic acid]
RORα overexpression dependent IL17a production in human CD4 T cells [2]: unaffected | human Th17 cell differentiation [3]: selectively suppress human Th17; also recorded: suppresses human Th17 cell differentiation to a degree similar to that of NCGC00238427; also recorded: selectively suppresses human Th17 cell differentiation | Th1 cell differentiation, as measured by IFNγ production [4]: does not inhibit Th1 cell differentiation | stability compared with compounds 150 and 157 ([5]; HLM, Table 3 data): better or improved stability over the compounds with IDs 150 and 157 | stability compared with verapamil ([5]; HLM, Table 3 data): improved stability with respect to verapamil
